Key:
[1] = target: T1, slr2103 (Synechocystis sp. PCC 6803, UniProt P73931); test: feeding of E. coli cells expressing slr2103, acyl-DPQ product by LC-MS/MS; format: cell-based; details: supplied as decylplastoquinone (1500 nmol in 5 ml), reduced in cells; acyl donor from E. coli; 30 C, 3 h
T1 construct: cloned in pQE-80L, expressed in E. coli; intact cells fed with substrate
T1 sequence (P73931 1-294): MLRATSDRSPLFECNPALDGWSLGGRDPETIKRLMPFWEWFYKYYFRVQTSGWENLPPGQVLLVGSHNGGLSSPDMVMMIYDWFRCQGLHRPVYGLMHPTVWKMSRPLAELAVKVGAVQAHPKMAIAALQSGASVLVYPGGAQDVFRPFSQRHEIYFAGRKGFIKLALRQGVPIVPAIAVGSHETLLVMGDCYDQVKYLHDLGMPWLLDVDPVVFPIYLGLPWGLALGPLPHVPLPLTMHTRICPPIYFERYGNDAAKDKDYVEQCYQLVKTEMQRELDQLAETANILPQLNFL

[2] = target: T2, A0918 (Picosynechococcus sp. PCC 7002, UniProt B1XIY0); test: in vitro acyltransferase assay with E. coli microsomal membranes, TAG product by MS; format: biochemical; details: 50 uM palmitoyl-CoA, 200 uM substrate, 20 mM MgCl2, 0.1% CHAPS, pH 7.4, 37 C, 20 min
T2 construct: gene plsC; amplified from genomic DNA, cloned in pQE-80L, expressed in E. coli; microsomal membrane fraction
T2 sequence (B1XIY0 1-291): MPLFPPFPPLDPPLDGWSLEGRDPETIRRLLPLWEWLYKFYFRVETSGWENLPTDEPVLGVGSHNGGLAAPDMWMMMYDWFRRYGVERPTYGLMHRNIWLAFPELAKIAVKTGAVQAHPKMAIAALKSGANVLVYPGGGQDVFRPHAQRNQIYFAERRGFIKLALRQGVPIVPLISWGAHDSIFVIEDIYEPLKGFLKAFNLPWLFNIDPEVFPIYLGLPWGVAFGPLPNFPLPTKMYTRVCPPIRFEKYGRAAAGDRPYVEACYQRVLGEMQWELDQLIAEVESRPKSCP

[3] = target: T1, slr2103; test: feeding of E. coli cells expressing slr2103, TAG product by MS; format: cell-based; details: 1500 nmol substrate in 5 ml; acyl donor from E. coli; 30 C, 3 h

| SMILES | feeding of E. coli cells expressing slr2103, acyl-DPQ product by LC-MS/MS [1] | in vitro acyltransferase assay with E. coli microsomal membranes, TAG product by [2] | feeding of E. coli cells expressing slr2103, TAG product by MS [3] |
| --- | --- | --- | --- |
| CCCCCCCCCCc1cc(O)c(C)c(C)c1O [DPQ, decylplastoquinol] | slr2103 is capable of acylating one of the quinol hydroxyl groups of DPQ |  |  |
| CCCCCCCC(=O)OCC(CO)OC(=O)CCCCCCC (stereo not drawn) [dioctanoin] |  | confirming that A0918 harbors acyltransferase activity for the synthesis of TAG and FAPE | Accumulation of TAG after supplementation of E. coli cells expressing slr2103 with dioctanoin |

Source: PMC12048435, “Multifunctional acyltransferases involved in the synthesis of triacylglycerol, fatty acid phytyl esters and plastoquinol esters in cyanobacteria” (Planta, 2025)
